Test results as given in ChEMBL document CHEMBL5120794, “Development of 5-hydroxyl-1-azabenzanthrone derivatives as dual binding site and selective acetylcholinesterase inhibitors” (Eur J Med Chem, 2022).
Activity calls are given as the source filed them. The rule behind the calls is not given here.

Key:
Mus musculus [1] = assay: Antialzheimer activity in ICR mouse assessed as reduction in scopolamine-induced cognitive impairment at 2.5 to 10 mg/kg, ip administered for 14 consecutive days followed by scopolmaine-stimulation measured on day 21 by Morris water maze test; format: functional, organism-based; settings: dose 2.5-10 mg/kg, time 21.0 day, DDE = dose-dependent effect
[2] = target: Amyloid-beta precursor protein (Homo sapiens) (UniProt P05067); assay: Inhibition of amyloid beta (1 to 42) (unknown origin) self-induced aggregation at 25 uM measured after 46 to 48 hrs by Thioflavin binding assay relative to control; settings: time 46-48 hrs
PC-12 [3] = assay: Cytoprotective activity against H2O2-induced oxidative damage in rat PC-12 cells assessed as cell viability at 1 uM preincubated for 4 hrs followed by H2O2 treatment for another 24 hrs by MTT assay; format: functional, cell-based; settings: time 28.0 hrs
PC-12 [4] = assay: Cytoprotective activity against H2O2-induced oxidative damage in rat PC-12 cells assessed as cell viability at 1 to 3 uM preincubated for 4 hrs followed by H2O2 treatment for another 24 hrs by MTT assay; format: functional, cell-based; settings: dose 1-3 µM, time 28.0 hrs
PC-12 [5] = assay: Inhibition of ROS production in rat PC-12 cells assessed as intracellular ROS level at 0.1 to 0.5 uM preincubated for 4 hrs followed by H2O2 treatment for another 24 hrs by flow cytometric analysis (RVB = 1.58); format: functional; settings: dose 0.1-0.5 µM; time 28 hrs
PC-12 [6] = assay: Induction of apoptosis in rat PC-12 cells assessed as viable cells at 0.1 uM preincubated for 4 hrs followed by H2O2 treatment for another 24 hrs by Annexin V and PI double staining based flow cytometric analysis (RVB = 87.1 %); format: functional; settings: time 28 hrs, read-out: Activity
PC-12 [7] = assay: Induction of apoptosis in rat PC-12 cells assessed as early apoptotic cells at 0.1 uM preincubated for 4 hrs followed by H2O2 treatment for another 24 hrs by Annexin V and PI double staining based flow cytometric analysis (RVB = 4.52 %); format: functional; settings: time 28 hrs
PC-12 [8] = assay: Induction of apoptosis in rat PC-12 cells assessed as necrotic cells at 0.1 uM preincubated for 4 hrs followed by H2O2 treatment for another 24 hrs by Annexin V and PI double staining based flow cytometric analysis (RVB = 2.94 %); format: functional; settings: time 28 hrs
PC-12 [9] = assay: Induction of apoptosis in rat PC-12 cells assessed as viable cells at 0.3 uM preincubated for 4 hrs followed by H2O2 treatment for another 24 hrs by Annexin V and PI double staining based flow cytometric analysis (RVB = 87.1 %); format: functional; settings: time 28 hrs, read-out: Activity
PC-12 [10] = assay: Induction of apoptosis in rat PC-12 cells assessed as early apoptotic cells at 0.3 uM preincubated for 4 hrs followed by H2O2 treatment for another 24 hrs by Annexin V and PI double staining based flow cytometric analysis (RVB = 4.52 %); format: functional; settings: time 28 hrs
PC-12 [11] = assay: Induction of apoptosis in rat PC-12 cells assessed as viable cells at 0.5 uM preincubated for 4 hrs followed by H2O2 treatment for another 24 hrs by Annexin V and PI double staining based flow cytometric analysis (RVB = 87.1 %); format: functional; settings: time 28 hrs, read-out: Activity
PC-12 [12] = assay: Induction of apoptosis in rat PC-12 cells assessed as early apoptotic cells at 0.5 uM preincubated for 4 hrs followed by H2O2 treatment for another 24 hrs by Annexin V and PI double staining based flow cytometric analysis (RVB = 4.52 %); format: functional; settings: time 28 hrs
PC-12 [13] = assay: Antioxidant activity in H2O2-induced oxidative stress in rat PC-12 cells assessed as increase in expression of Nrf2 level preincubated for 4 hrs followed by H2O2 treatment for another 24 hrs by Western blotting analysis; format: functional, cell-based; settings: dose 0.5-3 µM, time 28.0 hrs, DDE = dose-dependent effect
[14] = AUC (0 to 24 hrs) in Sprague-Dawley rat plasma at 10 mg/kg, IG measured at 10 to 1440 mins by LC-MS/MS analysis; format: ADME, organism-based; design: dose 10 mg/kg, time 10-1440 min, route ig; settings: po
[15] = AUC (0 to 24 hrs) in Sprague-Dawley rat plasma at 2 mg/kg, iv measured at 10 to 1440 mins by LC-MS/MS analysis; format: ADME, organism-based; design: time lower 10 min, dose 2 mg/kg, time upper 1440 min, route iv
[16] = AUC (0 to infinity) in Sprague-Dawley rat plasma at 2 mg/kg, iv measured at 10 to 1440 mins by LC-MS/MS analysis; format: ADME, organism-based; design: time lower 10 min, dose 2 mg/kg, time upper 1440 min, route iv
[17] = MRT infinity in Sprague-Dawley rat plasma at 10 mg/kg, IG measured at 10 to 1440 mins by LC-MS/MS analysis; format: ADME, organism-based; settings: po, time 10-1440 min
[18] = MRT infinity in Sprague-Dawley rat plasma at 2 mg/kg, iv measured at 10 to 1440 mins by LC-MS/MS analysis; format: ADME, organism-based; settings: time 10-1440 min
[19] = Half life in Sprague-Dawley rat plasma at 10 mg/kg, IG measured at 10 to 1440 mins by LC-MS/MS analysis; format: ADME, organism-based; settings: po, time 10-1440 min
[20] = Half life in Sprague-Dawley rat plasma at 2 mg/kg, iv measured at 10 to 1440 mins by LC-MS/MS analysis; format: ADME, organism-based; settings: time 10-1440 min
[21] = Tmax in Sprague-Dawley rat plasma at 10 mg/kg, IG measured at 10 to 1440 mins by LC-MS/MS analysis; format: ADME, organism-based; settings: po, time 10-1440 min
[22] = Tmax in Sprague-Dawley rat plasma at 2 mg/kg, iv measured at 10 to 1440 mins by LC-MS/MS analysis; format: ADME, organism-based; settings: time 10-1440 min
[23] = Cmax in Sprague-Dawley rat plasma at 2 mg/kg, iv measured at 10 to 1440 mins by LC-MS/MS analysis; format: ADME, organism-based; design: time lower 10 min, dose 2 mg/kg, time upper 1440 min, route iv
[24] = Clearance in Sprague-Dawley rat plasma at 2 mg/kg, iv measured at 10 to 1440 mins by LC-MS/MS analysis; format: ADME, organism-based; settings: time 10-1440 min
[25] = Bioavailability in Sprague-Dawley rat plasma at 10 mg/kg, IG measured at 10 to 1440 mins by LC-MS/MS analysis; format: ADME, organism-based; settings: po, time 10-1440 min
Mus musculus [26] = assay: Antialzheimer activity in scopolamine-induced cognitive impairment ICR mouse model assessed as improvement of exploration ability at 2.5 to 10 mg/kg, ip administered for 14 consecutive days followed by scopolmaine-stimulation measured on day 21 by Y maze test; format: functional; settings: dose 2.5-10 mg/kg, time 21 day
[27] = Toxicity in sopolamine-induced cognitive impairment ICR mouse model assessed as swimming motility impairment at 10 mg/kg, ip administered for 14 consecutive days followed by scopolmaine-stimulation measured on day 21; format: organism-based; settings: in vivo, 504 h, time 21 day
[28] = Toxicity in sopolamine-induced cognitive impairment ICR mouse model assessed as emesis at 10 mg/kg, ip administered for 14 consecutive days followed by scopolmaine-stimulation measured on day 21; format: organism-based; settings: in vivo, 504 h, time 21 day
[29] = Toxicity in sopolamine-induced cognitive impairment ICR mouse model assessed as diarrhea at 10 mg/kg, ip administered for 14 consecutive days followed by scopolmaine-stimulation measured on day 21; format: organism-based; settings: in vivo, 504 h, time 21 day
[30] = Toxicity in sopolamine-induced cognitive impairment ICR mouse model assessed as morphological change in heart at 10 mg/kg, ip administered for 14 consecutive days followed by scopolmaine-stimulation measured on day 21 by H and E staining method; format: organism-based; settings: in vivo, 504 h, time 21 day
Cholinesterase = Cholinesterase (Equus caballus, UniProt P81908)
Description: Inhibition of equine serum BchE using S-butyryl thiocholine iodide as substrate incubated for 10 mins followed by substrate addition measured at 0 to 180 secs by Ellman's method

in vitro = settings: PAMPA

Sequence of Cholinesterase (P81908 whole entry): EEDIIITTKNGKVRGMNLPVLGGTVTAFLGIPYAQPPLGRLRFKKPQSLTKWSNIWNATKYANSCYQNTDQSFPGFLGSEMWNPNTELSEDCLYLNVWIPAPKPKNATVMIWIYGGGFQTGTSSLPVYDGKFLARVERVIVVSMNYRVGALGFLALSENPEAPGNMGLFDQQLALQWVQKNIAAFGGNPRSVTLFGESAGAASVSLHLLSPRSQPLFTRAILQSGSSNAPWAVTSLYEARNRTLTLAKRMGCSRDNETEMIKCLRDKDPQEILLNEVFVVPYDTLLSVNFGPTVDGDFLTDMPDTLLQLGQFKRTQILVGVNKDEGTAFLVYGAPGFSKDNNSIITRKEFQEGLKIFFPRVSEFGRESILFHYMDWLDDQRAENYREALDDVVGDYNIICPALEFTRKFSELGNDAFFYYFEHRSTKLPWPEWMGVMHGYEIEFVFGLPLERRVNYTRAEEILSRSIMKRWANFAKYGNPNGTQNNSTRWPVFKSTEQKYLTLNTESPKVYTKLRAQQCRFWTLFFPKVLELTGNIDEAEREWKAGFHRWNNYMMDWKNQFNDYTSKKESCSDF
Sequence of Amyloid-beta precursor protein (Homo sapiens) (P05067 whole entry): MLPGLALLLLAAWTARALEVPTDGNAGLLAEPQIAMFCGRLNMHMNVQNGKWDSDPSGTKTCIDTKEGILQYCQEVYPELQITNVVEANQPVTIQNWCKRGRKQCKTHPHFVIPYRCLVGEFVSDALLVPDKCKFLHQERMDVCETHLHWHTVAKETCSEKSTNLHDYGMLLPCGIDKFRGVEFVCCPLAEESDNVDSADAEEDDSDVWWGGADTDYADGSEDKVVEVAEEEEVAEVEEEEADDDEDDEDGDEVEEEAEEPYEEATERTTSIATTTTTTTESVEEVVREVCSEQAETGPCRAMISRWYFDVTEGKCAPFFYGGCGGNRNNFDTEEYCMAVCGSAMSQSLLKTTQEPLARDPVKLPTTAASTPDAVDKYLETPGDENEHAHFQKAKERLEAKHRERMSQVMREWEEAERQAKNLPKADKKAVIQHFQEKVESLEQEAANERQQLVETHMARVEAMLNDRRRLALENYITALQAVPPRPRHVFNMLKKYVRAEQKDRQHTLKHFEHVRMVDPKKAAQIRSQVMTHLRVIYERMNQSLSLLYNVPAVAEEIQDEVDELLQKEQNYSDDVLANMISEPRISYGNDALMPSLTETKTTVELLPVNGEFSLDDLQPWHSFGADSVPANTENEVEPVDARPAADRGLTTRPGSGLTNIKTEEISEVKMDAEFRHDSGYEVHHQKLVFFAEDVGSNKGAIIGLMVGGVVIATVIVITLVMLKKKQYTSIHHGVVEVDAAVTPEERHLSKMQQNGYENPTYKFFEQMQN

For CC1CCCCN1CCCOc1cc2c3c(nccc3c1)-c1ccccc1C2=O (configuration not stated), the Activity (Mus musculus [1]) was “Dde”, the inhibition [2] was 35.3% and the Activity (PC-12 [3]) was “Active”. The Activity (PC-12 [4]) was “Active”, the Activity (PC-12 [5]) was 1.1 and the viability at 0.1 µM (PC-12 [6]) was 79.7%. It also gave an Activity (PC-12 [7]) of 6.76%, an Activity (PC-12 [8]) of 4.58% and a viability at 0.3 µM (PC-12 [9]) of 86.9%. The Activity (PC-12 [10]) was 3.99%, the viability at 0.5 µM (PC-12 [11]) was 88.5% and the Activity (PC-12 [12]) was 3.71%. The Activity (PC-12 [13]) was “Dde”, the AUC(0-t) [14] was 704 ng·h/mL and the AUC(0-t) [15] was 254 ng·h/mL. It also gave an AUC(0-inf) [16] of 288 ng·h/mL, an MRT inf [17] of 6.48 h and an MRT inf [18] of 2.79 h. It also gave a half-life [19] of 6.47 h, a half-life [20] of 3.73 h and a Tmax [21] of 3.33 h. For the same molecule, the Tmax [22] was 4.98 min, the Cmax [23] was 103 ng/mL and the clearance [24] was 116 mL/min/kg. The bioavailability [25] was 55.5%, the Activity (Mus musculus [26]) was 45.98% and the Activity [27] was “Non-Toxic”. For the same molecule, the Activity [28] was “Non-Toxic”, the Activity [29] was “Non-Toxic” and the Activity [30] was “Non-Toxic”. For the same molecule, the IC50 (Cholinesterase) was 19.7 µM and the Papp (in vitro) was 16.6 ×10⁻⁶ cm/s.
